Test results: patent US20260250290A1 (BRISTOL-MYERS SQUIBB COMPANY, priority 2023, published 2026)
Where a name gives a salt, the structure may show the parent alone.

Target: T1, full length SGK1 (Homo sapiens, UniProt O00141)
T1 construct: 125 μM full length SGK1 (Life Technologies Part #PR7358A); purchased Life Technologies PR7358A
T1 sequence (O00141 1-431): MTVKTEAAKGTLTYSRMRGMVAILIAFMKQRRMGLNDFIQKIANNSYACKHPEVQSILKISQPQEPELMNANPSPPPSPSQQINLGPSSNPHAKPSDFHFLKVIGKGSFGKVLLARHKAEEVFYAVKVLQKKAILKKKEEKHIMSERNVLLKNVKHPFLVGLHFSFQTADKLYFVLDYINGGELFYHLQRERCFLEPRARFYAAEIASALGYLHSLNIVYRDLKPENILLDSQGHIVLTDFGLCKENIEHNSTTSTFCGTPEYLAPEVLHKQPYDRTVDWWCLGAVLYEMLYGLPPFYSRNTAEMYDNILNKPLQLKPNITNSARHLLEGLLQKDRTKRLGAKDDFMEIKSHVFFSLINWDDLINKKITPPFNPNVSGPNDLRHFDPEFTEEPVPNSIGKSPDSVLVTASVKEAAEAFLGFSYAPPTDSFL
Assay: SGK1 inhibition Assay A (Caliper LabChip electrophoretic separation of fluorescent peptide substrate and phosphorylated product)
Format: biochemical
Details: Assay A; 20 μM ATP, 40 min incubation; read-out: SGK1 IC50

| IC50 [nM] | Structure (SMILES) |
| --- | --- |
| 21 | CN1CCN(c2cccc(C(=O)N[C@@H]3CCCN(c4cc(-c5ccc(=O)[nH]c5)n5ncnc(N)c45)C3)n2)CC1 [Example 798, (R)-N-(1-(4-amino-7-(6-oxo-1,6-dihydropyridin-3-yl)pyrrolo[2,1-f][1,2,4]triazin-5-yl)piperidin-3-yl)-6-(4-methylpiperazin-1-yl)picolinamide] |
| 10 | CS(=O)(=O)c1ccc(-c2cc(N3CCC[C@@H](NC(=O)c4ccc(C5CC5)s4)C3)c3c(N)ncnn23)cc1 [Example 92, (R)-N-(1-(4-amino-7-(4-(methylsulfonyl)phenyl)pyrrolo[2,1-f][1,2,4]triazin-5-yl)piperidin-3-yl)-5-cyclopropylthiophene-2-carboxamide, TFA] |
| 7 | NCC(=O)N1CC=C(c2cc(N3CCC[C@@H](NC(=O)c4ccc(Cl)s4)C3)c3c(N)ncnn23)C1 [Example 881, (R)-N-(1-(4-amino-7-(1-glycyl-2,5-dihydro-1H-pyrrol-3-y1)pyrrolo[2,1-f][1,2,4]triazin-5-yl)piperidin-3-y1)-5-chlorothiophene-2-carboxamide] |
| 18 | COC(=O)N1CC=C(c2cc(N3CCC[C@@H](NC(=O)c4sc(Cl)cc4OCC4CNC4)C3)c3c(N)ncnn23)C1 [Example 634, Methyl (R)-3-(4-amino-5-(3-(3-(azetidin-3~ylmethoxy)-5-chlorothiophene-2-carboxamido)piperidin-1-y1)pyrrolo[2,1-f][1,2,4]triazin-7-y1)-2,5-dihydro-\H-pyrrole-1-carboxylate] |
| 2 | CN(C)CCOc1cc(Cl)sc1C(=O)N[C@@H]1CCCN(c2cc(-c3ccnc(C#N)c3)n3ncnc(N)c23)C1 [Example 280, (R)-N-(1-(4-amino-7-(2-cyanopyridin-4-yl)pyrrolo[2,1-f][1,2,4]triazin-5-yl)piperidin-3-yl)-5-chloro-3-(2-(dimethylamino)ethoxy) thiophene-2-carboxamide] |
| 51 | CC(=O)N1CC=C(c2cc(N3CCC[C@@H](NC(=O)c4sc5ccccc5c4OC4CCN(C(=O)OC(C)(C)C)CC4)C3)c3c(N)ncnn23)C1 [Example 653, tert-butyl (R)-4-((2-((1-(7-(1-acetyl-2,5-dihydro-1H-pyrrol-3-yl)-4-aminopyrrolo[2,1-f][1,2,4]triazin-5-yl)piperidin-3-yl)carbamoyl)benzo[b]thiophen-3-yl)oxy)piperidine-1-carboxylate] |
| 26 | COc1ncccc1C(=O)N[C@@H]1CCCN(c2cc(C3=CCN(C(C)=O)C3)n3ncnc(N)c23)C1 [Example 718, (R)-N-(1-(7-(1-acetyl-2,5-dihydro-1H-pyrrol-3-yl)-4-aminopyrrolo[2,1-f][1,2,4]triazin-5-yl)piperidin-3-yl)-2-methoxynicotinamide] |
| 10 | COC(=O)N1CC=C(c2cc(N3CCC[C@@H](NC(=O)c4sc(Cl)cc4OCCN4CCCC4)C3)c3c(N)ncnn23)C1 [Example 292, Methyl (R)-3-(4-amino-5-(3-(5-chloro-3-(2-(pyrrolidin-1-yl)ethoxy)thiophene-2-carboxamido)piperidin-1-yl)pyrrolo[2,1-f] [1,2,4]triazin-7-yl)-2,5-dihydro-1H-pyrrole-1-carboxylate] |
| 1 | Nc1ncnn2c(-c3ccnc(F)c3)cc(N3CCC[C@@H](NC(=O)c4cccs4)C3)c12 [Example 153, (R)-N-(1-(4-amino-7-(2-fluoropyridin-4-yl)pyrrolo[2,1-f][1,2,4]triazin-5-yl)piperidin-3-yl)thiophene-2-carboxamide] |
| 7 | CC(=O)N1CC=C(c2cc(N3CCC[C@@H](NC(=O)c4sc(Cl)cc4OCCN4CCC(C)(O)CC4)C3)c3c(N)ncnn23)C1 [Example 299, (R)-N-(1-(7-(1-acetyl-2,5-dihydro-1H-pyrrol-3-yl)-4-aminopyrrolo[2,1-f][1,2,4]triazin-5-yl)piperidin-3-yl)-5-chloro-3-(2-(4-hydroxy-4-methylpiperidin-1-yl)ethoxy)thiophene-2-carboxamide] |
| 198 | CCN(CC)CCOc1cc(C(F)F)sc1C(=O)N[C@@H]1CCCN(c2cc(-c3cncnc3)n3ncnc(N)c23)C1 [Example 410, (R)-N-(1-(4-amino-7-(pyrimidin-5-yl)pyrrolo[2,1-f] [1,2,4]triazin-5-yl)piperidin-3-yl)-3-(2-(diethylamino)ethoxy)-5-(difluoromethyl) thiophene-2-carboxamide] |
| 6 | CC1CC(Oc2cc(Cl)sc2C(=O)NC2CCCN(c3cc(-c4cncnc4)n4ncnc(N)c34)C2)CCN1 (single isomer, unassigned) [Example 625] |
| 9 | CC(=O)N1CC=C(c2cc(N3CCC[C@@H](NC(=O)c4cccc(N5CC(=O)NC(C)C5)n4)C3)c3c(N)ncnn23)C1 (stereo partly drawn) [Example 775, N-((R)-1-(7-(1-acetyl-2,5-dihydro-1H-pyrrol-3-yl)-4-aminopyrrolo[2,1-f][1,2,4]triazin-5-yl)piperidin-3-yl)-6-(3-methyl-5-oxopiperazin-1-yl)picolinamide, 2 TFA] |
| 2 | Cc1ccc(C(=O)N[C@@H]2CCCN(c3cc(-c4ccc(S(C)(=O)=O)cc4)n4ncnc(N)c34)C2)s1 [Example 87, (R)-N-(1-(4-amino-7-(4-(methylsulfonyl)phenyl)pyrrolo[2,1-f][1,2,4]triazin-5-yl)piperidin-3-yl)-5-methylthiophene-2-carboxamide] |
| 322 | CC(=O)N1CC=C(c2cc(N3CCC[C@@H](NC(=O)c4sc(C(F)F)cc4C4CCN(C(C)C)C4)C3)c3c(N)ncnn23)C1 (stereo partly drawn) [Example 407, N-((R)-1-(7-(1-acetyl-2,5-dihydro-1H-pyrrol-3-yl)-4-aminopyrrolo[2,1-f][1,2,4]triazin-5-yl)piperidin-3-yl)-5-(difluoromethyl)-3-(1-isopropylpyrrolidin-3-yl)thiophene-2-carboxamide] |
| 75 | CC(=O)N1CC=C(c2cc(N3CCC[C@@H](NC(=O)c4ccccc4N(C)C)C3)c3c(N)ncnn23)C1 [Example 470, (R)-N-(1-(7-(1-acetyl-2,5-dihydro-1H-pyrrol-3-yl)-4-aminopyrrolo[2,1-f][1,2,4]triazin-5-yl)piperidin-3-yl)-2-(dimethylamino)benzamide] |
| 31 | CC(=O)N1CC=C(c2cc(N3CCC[C@@H](NC(=O)c4sc(C)cc4N4CCN(C)CC4)C3)c3c(N)ncnn23)C1 [Example 269, (R)—N-(1-(7-(1-acetyl-2,5-dihydro-1H-pyrrol-3-yl)-4-aminopyrrolo[2,1-f][1,2,4]triazin-5-yl)piperidin-3-yl)-5-methyl-3-(4-methylpiperazin-1-yl)thiophene-2-carboxamide] |
| 10 | CS(=O)(=O)c1ccc(-c2cc(N3CCC[C@@H](NC(=O)c4ccccc4OCCO)C3)c3c(N)ncnn23)cc1 [Example 59, (R)-N-(1-(4-amino-7-(4-(methylsulfonyl)phenyl)pyrrolo[2,1-f][1,2,4]triazin-5-yl)piperidin-3-yl)-2-(2-hydroxyethoxy) benzamide] |
| 161 | COc1cc(-c2cc(N3CCC[C@@H](NC(=O)c4ccc(Cl)s4)C3)c3c(N)ncnn23)cc(C(F)(F)F)n1 [Example 232, N-[(3R)-1-{4-amino-7-[2-methoxy-6-(trifluoromethyl)pyridin-4-yl]pyrrolo[2,1-f][1,2,4]triazin-5-yl}piperidin-3-yl]-5-chlorothiophene-2-carboxamide] |
| 35 | CC(=O)N1CC=C(c2cc(N3CCC[C@@H](NC(=O)c4sc5ccc(C#N)cc5c4OC4CCNCC4)C3)c3c(N)ncnn23)C1 [Example 677, (R)—N-(1-(7-(1-acetyl-2,5-dihydro-1H-pyrrol-3-yl)-4-aminopyrrolo[2,1-f][1,2,4]triazin-5-yl)piperidin-3-yl)-5-cyano-3-(piperidin-4-yloxy)benzo[b]thiophene-2-carboxamide] |
| 48 | CS(=O)(=O)c1ccc(-c2cc(N3CCC[C@@H](NC(=O)c4ccc5c(c4)CC5)C3)c3c(N)ncnn23)cc1 [Example 83, (R)-N-(1-(4-amino-7-(4-(methylsulfonyl)phenyl)pyrrolo[2,1-f][1,2,4]triazin-5-yl)piperidin-3-yl)bicyclo[4.2.0]octa-1(6),2,4-triene-3-carboxamide, TFA] |
| 5 | CC(=O)N1CC=C(c2cc(N3CCC[C@@H](NC(=O)c4csc(C)c4)C3)c3c(N)ncnn23)C1 [Example 720, (R)-N-(1-(7-(1-acetyl-2,5-dihydro-1H-pyrrol-3-yl)-4-aminopyrrolo[2,1-f][1,2,4]triazin-5-yl)piperidin-3-yl)-5-methylthiophene-3-carboxamide] |
| 19 | CS(=O)(=O)c1ccc(-c2cc(N3CCC[C@@H](NC(=O)c4ccc(F)c(F)c4)C3)c3c(N)ncnn23)cc1 [Example 26, (R)-N-(1-(4-amino-7-(4-(methylsulfonyl)phenyl)pyrrolo [2,1-f][1,2,4]triazin-5-yl)piperidin-3-yl)-3,4-difluorobenzamide] |

| Structure (SMILES) | IC50 [nM] |
| --- | --- |
| CN1CCN(c2cccc(C(=O)N[C@@H]3CCCN(c4cc(-c5cnn(C6CCOC6)c5)n5ncnc(N)c45)C3)n2)CC1 (stereo partly drawn) [Example 803, N-((3R)-1-(4-amino-7-(1-(tetrahydrofuran-3-yl)-1H-pyrazol-4-yl)pyrrolo[2,1-f][1,2,4]triazin-5-yl)piperidin-3-yl)-6-(4-methylpiperazin-1-yl)picolinamide] | 2050 |

Same assay, conditions: SGK1 IC50, Assay A; 20 μM ATP, 40 min incubation

| Structure (SMILES) | IC50 [nM] |
| --- | --- |
| CC(=O)N1CC=C(c2cc(N3CCC[C@@H](NC(=O)c4ccc(S(=O)(=O)F)cc4)C3)c3c(N)ncnn23)C1 [Example 870, (R)-4-((1-(7-(1-acetyl-2,5-dihydro-1H-pyrrol-3-yl)-4-aminopyrrolo[2,1-f][1,2,4]triazin-5-yl)piperidin-3-yl)carbamoyl)benzenesulfonyl fluoride] | 32 |
